From ChEMBL document CHEMBL1129203, “Structure-activity relationships in 3-oxo-1,4-benzodiazepine-2-acetic acid GPIIb/IIIa antagonists. The 2-benzazepine series” (Bioorg Med Chem Lett, 1996) come the findings set out here.

For one assay, the species on record is Homo sapiens. In words: In vitro inhibition of platelet aggregation in human platelet-rich plasma induced by ADP. In kind it is functional.
The target of assay [1] is Integrin alpha-IIb/beta-3 (Homo sapiens, UniProt P05106+P08514). In words: In vitro binding affinity against human alpha IIb beta-3 integrin. The class given is protein-complex assay.
Sequence of Integrin alpha-IIb/beta-3 (P05106 27-788 limits assumed): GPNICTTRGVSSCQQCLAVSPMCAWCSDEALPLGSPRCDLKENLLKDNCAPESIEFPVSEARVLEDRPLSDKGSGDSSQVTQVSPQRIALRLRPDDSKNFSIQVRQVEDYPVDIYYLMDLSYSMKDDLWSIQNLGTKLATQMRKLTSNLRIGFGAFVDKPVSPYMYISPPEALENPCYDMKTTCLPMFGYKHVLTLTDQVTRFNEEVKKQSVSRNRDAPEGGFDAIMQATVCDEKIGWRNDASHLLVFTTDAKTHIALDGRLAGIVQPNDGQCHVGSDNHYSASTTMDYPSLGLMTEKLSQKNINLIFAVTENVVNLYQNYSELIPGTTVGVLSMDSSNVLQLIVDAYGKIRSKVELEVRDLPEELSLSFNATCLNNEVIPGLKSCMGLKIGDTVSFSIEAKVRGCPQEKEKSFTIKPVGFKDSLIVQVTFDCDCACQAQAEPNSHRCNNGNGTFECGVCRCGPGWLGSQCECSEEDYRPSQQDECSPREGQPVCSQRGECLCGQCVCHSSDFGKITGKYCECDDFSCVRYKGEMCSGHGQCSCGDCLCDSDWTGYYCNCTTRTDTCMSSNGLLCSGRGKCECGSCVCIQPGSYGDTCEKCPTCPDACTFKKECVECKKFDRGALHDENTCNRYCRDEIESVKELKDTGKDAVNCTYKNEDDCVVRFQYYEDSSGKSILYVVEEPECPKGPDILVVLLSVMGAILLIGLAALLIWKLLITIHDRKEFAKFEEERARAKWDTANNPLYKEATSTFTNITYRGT
Sequence of Integrin alpha-IIb/beta-3 (P08514 32-887 limits assumed): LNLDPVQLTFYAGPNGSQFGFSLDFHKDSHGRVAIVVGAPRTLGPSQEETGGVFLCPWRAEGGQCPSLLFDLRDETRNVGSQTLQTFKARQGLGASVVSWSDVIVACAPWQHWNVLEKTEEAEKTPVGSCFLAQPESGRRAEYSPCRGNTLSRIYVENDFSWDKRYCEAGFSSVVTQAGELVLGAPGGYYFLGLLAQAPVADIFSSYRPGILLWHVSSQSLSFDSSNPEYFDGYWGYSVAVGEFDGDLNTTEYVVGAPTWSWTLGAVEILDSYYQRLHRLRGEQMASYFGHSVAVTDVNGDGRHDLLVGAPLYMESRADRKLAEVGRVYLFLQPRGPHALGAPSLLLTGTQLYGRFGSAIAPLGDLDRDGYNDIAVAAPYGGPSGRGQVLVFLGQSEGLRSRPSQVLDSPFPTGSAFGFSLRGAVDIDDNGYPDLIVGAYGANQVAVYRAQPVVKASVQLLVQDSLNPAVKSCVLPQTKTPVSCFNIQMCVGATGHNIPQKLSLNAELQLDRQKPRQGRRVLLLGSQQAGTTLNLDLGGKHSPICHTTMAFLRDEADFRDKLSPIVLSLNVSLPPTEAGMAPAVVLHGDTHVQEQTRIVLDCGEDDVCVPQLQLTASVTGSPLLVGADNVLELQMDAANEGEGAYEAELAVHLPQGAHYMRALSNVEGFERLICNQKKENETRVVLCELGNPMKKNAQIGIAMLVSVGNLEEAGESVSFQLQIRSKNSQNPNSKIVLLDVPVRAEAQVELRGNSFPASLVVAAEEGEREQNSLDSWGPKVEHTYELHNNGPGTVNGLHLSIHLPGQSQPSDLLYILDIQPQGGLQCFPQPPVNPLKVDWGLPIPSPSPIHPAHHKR
Sequence of Integrin alpha-IIb/beta-3 (P08514 891-1039 limits assumed): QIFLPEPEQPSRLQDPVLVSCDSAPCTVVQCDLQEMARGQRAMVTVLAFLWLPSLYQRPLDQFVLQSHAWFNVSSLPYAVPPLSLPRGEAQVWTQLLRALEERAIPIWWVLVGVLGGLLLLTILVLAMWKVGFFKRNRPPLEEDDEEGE

Molecules are shown by their SMILES.

In turn, `N=C(N)c1ccc(NC(=O)c2ccc3c(c2)NC(CC(=O)O)C(=O)N(CCc2ccccc2)C3)cc1` (configuration not stated) displayed an IC50 in the assay listed under Homo sapiens of 8 nM.

`CN(CCC1CCNCC1)C(=O)c1ccc2c(c1)CC(CC(=O)O)C(=O)N(CCc1cccs1)C2` (configuration not stated) came in with an IC50 in the assay listed under Homo sapiens of 18 nM. The Ki in assay [1] amounted to 2.5 nM.

The compound `CN(CCC1CCNCC1)C(=O)c1ccc2c(c1)CC(CC(=O)O)C(=O)N(CCCCCc1ccccc1)C2` (configuration not stated) had a half-inhibitory concentration (IC50) in the assay filed under Homo sapiens of 8 nM. This compound also yielded a Ki in assay [1] of 2 nM.

As for `CN(CCC1CCNCC1)C(=O)c1ccc2c(c1)CC(CC(=O)O)C(=O)N(C)C2` (configuration not stated), in the assay filed under Homo sapiens, the IC50 was found to be 33 nM. This compound also came in with a Ki in assay [1] of 1.5 nM.

`CC(C)N1Cc2ccc(C(=O)N(C)CCC3CCNCC3)cc2CC(CC(=O)O)C1=O` (configuration not stated) showed an IC50 in the assay listed under Homo sapiens of 37 nM. The compound further gave a Ki in assay [1] of 2 nM.

In the case of `CN(CCC1CCNCC1)C(=O)c1ccc2c(c1)CC(CC(=O)O)C(=O)N(C1CCCCC1)C2` (configuration not stated), in the assay filed under Homo sapiens, the 50% inhibitory concentration (IC50) turned out to be 49 nM. In addition, the inhibition constant (Ki) in assay [1] came to 1.3 nM.

As for `CN(CCC1CCNCC1)C(=O)c1ccc2c(c1)CC(CC(=O)O)C(=O)NC2` (configuration not stated), half-maximal inhibition in the assay filed under Homo sapiens (IC50) was put at 71 nM. Moreover, the Ki in assay [1] amounted to 3.2 nM.

As to `CN(CCC1CCNCC1)C(=O)c1ccc2c(c1)CC(CC(=O)O)C(=O)N(CCc1ccccc1)C2` (configuration not stated), the IC50 in the assay listed under Homo sapiens amounted to 13 nM. For the same compound, the Ki in assay [1] came out at 3 nM.

With `CN(CCC1CCNCC1)C(=O)c1ccc2c(c1)CC(CCC(=O)O)C(=O)N(CCc1ccccc1)C2` (configuration not stated), the midpoint of inhibition in the assay listed under Homo sapiens, the IC50, lay at 7790 nM. In assay [1], the Ki amounted to 650 nM.

`CN(CCC1CCNCC1)C(=O)c1ccc2c(c1)CC(CC(=O)O)C(=O)N(Cc1ccccc1)C2` (configuration not stated) returned a 50% inhibitory concentration (IC50) in the assay filed under Homo sapiens of 36 nM. The same compound came in with a Ki in assay [1] of 1 nM.

`CN(CCC1CCNCC1)C(=O)c1ccc2c(c1)CC(CC(=O)O)C(=O)N(CCC1CCCCC1)C2` (configuration not stated): the IC50 in the assay filed under Homo sapiens was determined as 27 nM. This compound registered a Ki in assay [1] of 2 nM.

In the assay listed under Homo sapiens, `CC(C)CCN1Cc2ccc(C(=O)N(C)CCC3CCNCC3)cc2CC(CC(=O)O)C1=O` (configuration not stated) displayed a half-inhibitory concentration (IC50) of 32 nM. In assay [1], this compound registered an inhibitory constant (Ki) of 1.5 nM.

`CN(C(=O)c1ccc2c(c1)CC(CC(=O)O)C(=O)N(CCc1ccccc1)C2)c1ccc(C(=N)N)cc1` (configuration not stated) had a 50% inhibitory concentration (IC50) in the assay filed under Homo sapiens of 12 nM. This compound also had a Ki in assay [1] of 1.5 nM.

Consider `CN(CCC1CCNCC1)C(=O)c1ccc2c(c1)CC(CC(=O)O)C(=O)N(CCc1ccc(F)cc1)C2` (configuration not stated), for which the IC50 in the assay listed under Homo sapiens was found to be 27 nM. In assay [1], this compound yielded a Ki of 1.7 nM.

The compound `CN(CCC1CCNCC1)C(=O)c1ccc2c(c1)CC(CC(=O)O)C(=O)N(CCC(C)(C)C)C2` (configuration not stated) had an IC50 in the assay listed under Homo sapiens of 27 nM. In assay [1], this compound yielded a Ki of 2 nM.

In the case of `CCCCN1Cc2ccc(C(=O)N(C)CCC3CCNCC3)cc2CC(CC(=O)O)C1=O` (configuration not stated), 31 nM corresponded to half-maximal inhibition in the assay listed under Homo sapiens (IC50). This compound also displayed a Ki in assay [1] of 1.5 nM.

In the assay listed under Homo sapiens, `CN(C(=O)c1ccc2c(c1)NC(CC(=O)O)C(=O)N(CCc1ccccc1)C2)c1ccc(C(=N)N)cc1` (configuration not stated) gave a 50% inhibitory concentration (IC50) of 28 nM. That is a double-digit nanomolar value.
